# Where two headings read alike, the source gives them in different places.
# Experiments:
# [1] = cited from earlier work; for Clearance (route) / Clearance (time; half-life): in vivo; for uptake by hepatocytes: during excretion
# serum albumin = serum albumin (Homo sapiens, UniProt P02768); details: cited from earlier work
# [2] = system: primary rat renal proximal tubule epithelial cells (RPTECs); assay: In vitro toxicity, MTT assay; type: cell-based; details: for IC50: rat RPTECs, MTT, read-out: Inhibitory concentration IC50; for cytotoxicity: 10 h time point, compared with 4 h
# Description: Gadodiamide (Selleckchem, Lot #02) was used as the reference compound. It is one of the 8 Gd(III)-based MRI agents approved for use in Canada (trade name: Omniscan™).
# The test articles and reference compound were weighed and dissolved in the incubation medium to give the highest test concentration of 30 mM. The solution was filter sterilized and diluted to the remaining test concentrations of 10 mM, 3.3 mM, 1.1 mM, 0.36 mM, 0.12 mM and 0.04 mM.
# Cryopreserved primary rat renal proximal tubule epithelial cells (RPTECs) (ScienCell Research Laboratories, Carlsbad, Calif.) were used for the study. The rat RPTECs were thawed completely at 37° C., and transferred to epithelial cell medium (ScienCell Research Laboratories, Carlsbad, Calif.) followed by plating in poly-L-lysine coated 96-well plates. The RPTECs were allowed to recover and grow in a cell culture incubator (37° C., humidified atmosphere of 5% carbon dioxide and 95% air) for 3 additional days with a medium change every alternate day.
# Following 3 days of plating, the RPTECs were washed once with serum free epithelial cell medium (ScienCell Research Laboratories, Carlsbad, Calif.) followed by treatment with the test, reference or control articles for 2, 4, 10 or 24 h. All treatments were performed in triplicate.
# Cellular viability and metabolic activity were assessed by using the 3-(4,5-dimethylthiazol-2-yl)-2,5-diphenyl tetrazolium bromide (MTT) uptake assay. A 10× stock of the MTT dye was prepared in phosphate buffered saline (PBS). An aliquot of dye was added 2 hrs before the intended time point to achieve a final 1× concentration, after which incubation (37° C., humidified atmosphere of 5% carbon dioxide and 95% air) continued until the desired time point. For the 2 hr time point, the aliquot of dye was added immediately after the test articles. Following incubation, all media was aspirated from the wells and the plates were allowed to dry. The resulting formazan crystals were dissolved in DMSO using an orbital shaker, and the absorbance at 570 nm was measured using a Victor ^3V multilabel plate reader (reference wavelength=650 nm).
# The inhibitory concentration (IC50, the concentration resulting in 50% toxicity) was determined by plotting log concentration vs. relative viability, followed by non-linear regression of the curve using Graph Pad Prism 5.0.
# An in vitro toxicity study was performed in order to evaluate the cytotoxic potential of several of the agents in primary rat renal proximal tubule epithelial cells (RPTECs), prior to performing in vivo studies. The Mn^II and Gd^III complexes of L1, L2 and L6 (complexes 1, 2, 5, and 7-9) were evaluated at seven concentrations (30 mM, 10 mM, 3.3 mM, 1.1 mM, 0.36 mM, 0.12 mM and 0.04 mM) after 2, 4, 10 and 24 hours of treatment in rat RPTECs. The MTT assay was used as an indicator of viability. The nephrotoxic potential of the test articles was compared to the toxicity observed in the presence of the approved agent Gadodiamide. The results are summarized in Table 4, where the inhibitory concentration (IC50, the concentration resulting in 50% toxicity) was determined by plotting log concentration vs. relative viability.
# [3] = Relaxivity measurements (T1 and T2 relaxation times, Bruker minispec mq60/mq20); type: physicochemical; details: aqueous solution, 37° C.
# Description: T1 and T2 relaxation times were measured at the STTARR Innovation Centre in Toronto, Canada using a Bruker minispec mq60, and at the Bruker Showroom in Milton, Canada using a Bruker minispec mq20. Measurements were carried out on a series of 6 aqueous dilutions between 0-5 mM.
# The T1 and T2 relaxation times of the 8 soluble, pure complexes were measured in aqueous solution at 37° C., at both 20 and 60 MHz.
# Chain of serum albumin (P02768 25-609): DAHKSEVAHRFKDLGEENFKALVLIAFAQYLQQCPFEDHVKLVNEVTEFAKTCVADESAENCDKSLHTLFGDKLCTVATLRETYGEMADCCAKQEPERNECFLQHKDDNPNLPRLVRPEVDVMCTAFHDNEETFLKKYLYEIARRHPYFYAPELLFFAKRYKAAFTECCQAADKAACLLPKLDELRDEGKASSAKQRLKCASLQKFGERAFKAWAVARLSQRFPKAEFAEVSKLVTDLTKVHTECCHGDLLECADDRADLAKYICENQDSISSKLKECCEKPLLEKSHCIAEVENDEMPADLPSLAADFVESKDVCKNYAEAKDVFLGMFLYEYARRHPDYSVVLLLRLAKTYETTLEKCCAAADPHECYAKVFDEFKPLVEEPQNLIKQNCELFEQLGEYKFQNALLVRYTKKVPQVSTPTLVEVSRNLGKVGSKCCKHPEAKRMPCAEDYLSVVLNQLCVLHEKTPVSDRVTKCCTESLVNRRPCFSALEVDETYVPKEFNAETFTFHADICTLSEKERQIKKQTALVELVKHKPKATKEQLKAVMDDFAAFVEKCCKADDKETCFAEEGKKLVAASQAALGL
smiles,measurement,setting,value
"O=C([O-])CN1CCN(CC(=O)[O-])CCN([C@H](CO)[C@H](O)CO)CCN(CC(=O)[O-])CC1.[Gd+3] (racemic) [Gadavist, gadobutrol]",Clearance (route),[1],renal
"O=C([O-])CN(CCN(CC(=O)[O-])C[C@H](COP(=O)([O-])OC1CCC(c2ccccc2)(c2ccccc2)CC1)N(CC(=O)[O-])CC(=O)[O-])CC(=O)[O-].[Gd+3].[H+].[H+].[H+] [Ablavar or Vasovist, gadofosveset]",binding to serum albumin,serum albumin,selectively binds to the blood protein serum albumin
same,Clearance (route),[1],renal/hepatic
same,Clearance (time; half-life),[1],18.5 h
"CC1=Nc2ccccc2OCCOCCOc2ccccc2N=C(C)c2cccc1n2.O.O.[Cl-].[Cl-].[Mn+2] [Compound 5, [MnL6Cl2].2H2O]",IC50,[2]; 2 hr treatment,1250 µM
same,IC50,[2]; 4 hr treatment,670 µM
same,IC50,[2]; 10 hr treatment,1390 µM
same,cytotoxicity,[2],exhibited a slight reduction in toxicity
same,IC50,[2]; 24 hr treatment,210 µM
same,r1 relaxivity,[3]; 20 MHz,7.22 s⁻¹ mM⁻¹
same,r1 relaxivity,[3]; 60 MHz,2.97 s⁻¹ mM⁻¹
"CC1=NCCNCCNCCN=C(C)c2cccc1n2.O.O.O.[Cl-].[Cl-].[Cl-].[Gd+3] [Compound 7, [GdL1Cl3].3H2O]",IC50,[2]; 2 hr treatment,8150 µM
same,IC50,[2]; 4 hr treatment,3370 µM
same,IC50,[2]; 10 hr treatment,8530 µM
same,cytotoxicity,[2],exhibited a slight reduction in toxicity
same,IC50,[2]; 24 hr treatment,920 µM
same,r1 relaxivity,[3]; 20 MHz,6.43 s⁻¹ mM⁻¹
same,r1 relaxivity,[3]; 60 MHz,5.58 s⁻¹ mM⁻¹
"CNC[C@H](O)[C@@H](O)[C@H](O)[C@H](O)CO.O=C([O-])CN1CCN(CC(=O)[O-])CCN(CC(=O)O)CCN(CC(=O)[O-])CC1.[Gd+3] [Dotarem, gadoterate]",Clearance (route),[1],renal
"CCOc1ccc(CC(CN(CCN(CC(=O)[O-])CC(=O)[O-])CC(=O)[O-])N(CC(=O)[O-])CC(=O)[O-])cc1.[Gd+3].[Na+].[Na+] (stereo not shown) [Eovist or Primovist, gadoxetate]",uptake by hepatocytes,[1],taken up by hepatocytes during excretion
same,Clearance (route),[1],renal/hepatic
"CNC(=O)CN(CCN(CCN(CC(=O)[O-])CC(=O)NC)CC(=O)[O-])CC(=O)[O-].[Gd+3] [Gadodiamide, gadodiamide, reference compound]",nephrotoxicity,"[2]; 2 and 4 h of treatment, 0.04-30 mM",did not show significant nephrotoxicity
same,IC50,[2]; 10 hr treatment,> 30000 µM
same,cytotoxicity,[2],showed more toxicity than earlier time points
same,nephrotoxic effects,[2]; 24 h of treatment,exhibiting the least nephrotoxic effects
same,IC50,[2]; 24 hr treatment,31000 µM
same,Clearance (route),[1],renal
same,Clearance (time; half-life),[1],1.30 h
"O=C([O-])CN(CCN(CC(=O)[O-])CC(=O)O)CCN(CC(=O)[O-])CC(=O)O.[Gd+3] [Magnevist, gadopentetate]",Clearance (route),[1],renal
same,Clearance (time; half-life),[1],1.60 h
"CNC[C@H](O)[C@@H](O)[C@H](O)[C@H](O)CO.CNC[C@H](O)[C@@H](O)[C@H](O)[C@H](O)CO.O=C([O-])CN(CCN(CC(=O)[O-])CC(=O)O)CCN(CC(=O)O)C(COCc1ccccc1)C(=O)[O-].[Gd+3] (stereo not shown) [Multihance, gadobenate]",uptake by hepatocytes,[1],taken up by hepatocytes during excretion
same,Clearance (route),[1],renal/hepatic
same,Clearance (time; half-life),[1],1.2 to 2 h
"COCCNC(=O)CN(CCN(CCN(CC(=O)[O-])CC(=O)NCCOC)CC(=O)[O-])CC(=O)[O-].[Gd+3] [OptiMARK, gadoversetamide]",Clearance (route),[1],renal
same,Clearance (time; half-life),[1],1.73 h
"CC(O)CN1CCN(CC(=O)[O-])CCN(CC(=O)[O-])CCN(CC(=O)[O-])CC1.[Gd+3] (stereo not shown) [Prohance, gadoteridol]",Clearance (route),[1],renal
same,Clearance (time; half-life),[1],1.57 h
